{"source": "patent US20150025012A1", "about": "“METHODS AND COMPOSITIONS FOR IDENTIFICATION, ASSESSMENT AND TREATMENT OF CANCERS ASSOCIATED WITH HEDGEHOG SIGNALING” (Infinity Pharmaceuticals, Inc., priority 2010, published 2015)", "system": "Gli1 mRNA", "test": "Real-time RT-PCR of Gli1 mRNA in laser capture microdissected BCC tumor samples", "assay_type": "in vivo, human", "settings": "post-treatment versus pre-treatment, BCC patients", "protocol": "As a comparison, real-time RT-PCR was performed using RNA extracted from Laser Capture Microdissected tumor samples from BCC patients. The ddCt method was used to calculate the real-time PCR results (Livak K. J. et al. (2001) Methods. 25(4):402-8). FIG. 27 is a bar graph depicting the quantitation of Gli1 mRNA pre- and post treatment with IPI-926. Although a decrease level of Gli1 mRNA is detected post-treatment, the level of reduction is not as pronounced as that detected by evaluating nuclear localization of Gli1.", "data": [{"compound": "CC1=C2C[C@H]3[C@@H](CC[C@@H]4C[C@H](NS(C)(=O)=O)CC[C@@]43C)[C@@H]2CC[C@@]2(C1)O[C@@H]1C[C@H](C)CN[C@H]1[C@H]2C", "note": "[IPI-926]", "values": [{"measurement": "level of Gli1 mRNA", "result": "decrease"}]}]}
